In data set [1] the target is T1, FGF14:Nav1.6 C-tail complex (Homo sapiens, UniProt Q92915+Q9UQD0).
T1 construct: polymerase chain reaction (PCR) amplification of the FGF14 open reading frame (nt 1–855); C-terminal fragment of Nav1.6 (amino acids 1763–1976) fused with CD4ΔC-tail (amino acids 1–395); expressed in transfected cells
Briefly: Split-luciferase complementation assay (LCA) in Clone V double stable HEK293 cells. Type of data set: cell-based. The conditions noted are these: for Split Luciferase Assay Z-score Set 1 / Split Luciferase Assay % Lum Set 1 / Split Luciferase Assay Z-score Set 2 / Split Luciferase Assay %Lum Set 2: CC_NCI screening; for Split Luciferase Assay Z-score Set 1 / Split Luciferase Assay % Lum Set 1: biological replicate Set 1; for Split Luciferase Assay Z-score Set 1 / Split Luciferase Assay Z-score Set 2: normalized to on-plate 0.3% DMSO controls; for Split Luciferase Assay % Lum Set 1 / Split Luciferase Assay %Lum Set 2: normalized to on-plate 0.3% DMSO controls (n=16 per plate); for Split Luciferase Assay Z-score Set 2 / Split Luciferase Assay %Lum Set 2: biological replicate Set 2; for Split Luciferase Assay %Lum Avg: average of Set 1 and Set 2, normalized to 0.3% DMSO controls.

In data set [2] the target is full-length P. pyralis luciferase (Photinus pyralis, UniProt P08659, K549A/L550V/N119G/N50D/S548I). It counts as cell-based.
Chain of full-length P. pyralis luciferase (P08659 whole entry N50D/N119G/S548I/K549A/L550V, looked up): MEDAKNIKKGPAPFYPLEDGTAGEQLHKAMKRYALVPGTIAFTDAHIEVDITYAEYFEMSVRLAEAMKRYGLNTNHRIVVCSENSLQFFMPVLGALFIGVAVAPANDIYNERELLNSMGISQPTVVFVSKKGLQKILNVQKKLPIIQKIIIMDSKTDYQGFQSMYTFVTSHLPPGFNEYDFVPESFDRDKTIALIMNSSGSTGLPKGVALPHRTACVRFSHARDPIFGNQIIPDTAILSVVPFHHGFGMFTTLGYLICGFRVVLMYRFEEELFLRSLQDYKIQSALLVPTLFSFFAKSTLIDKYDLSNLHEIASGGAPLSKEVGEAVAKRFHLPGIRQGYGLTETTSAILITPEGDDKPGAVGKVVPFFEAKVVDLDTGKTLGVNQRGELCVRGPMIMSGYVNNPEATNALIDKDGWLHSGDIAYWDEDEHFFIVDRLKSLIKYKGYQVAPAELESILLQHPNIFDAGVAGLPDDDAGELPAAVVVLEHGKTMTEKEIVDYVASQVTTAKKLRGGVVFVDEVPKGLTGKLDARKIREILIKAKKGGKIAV
The next data set concerns Clone V cells. The settings on record: human.
A short description of the next data set: in vitro. The conditions noted are these: human.
[3] abbreviates: CC_NCI screening, normalized to on-plate 0.3% DMSO controls.

Counter-ions that a name gives are not always drawn. Like-named read-outs stand apart in the source and are kept apart here.

The viability is a read-out of living cells in per cent, often relative to untreated cells. What is called EC50 is the concentration giving half of the maximal effect.

T1 sequence (Q92915 1-252 isoform Q92915-2): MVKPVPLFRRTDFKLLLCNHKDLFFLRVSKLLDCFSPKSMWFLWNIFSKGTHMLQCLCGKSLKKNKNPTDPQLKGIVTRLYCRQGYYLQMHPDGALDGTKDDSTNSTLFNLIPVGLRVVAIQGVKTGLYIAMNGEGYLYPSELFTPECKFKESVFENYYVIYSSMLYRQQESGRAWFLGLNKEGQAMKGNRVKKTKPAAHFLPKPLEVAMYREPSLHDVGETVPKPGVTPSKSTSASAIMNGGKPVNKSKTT
T1 sequence (Q9UQD0 1763-1976 limits assumed): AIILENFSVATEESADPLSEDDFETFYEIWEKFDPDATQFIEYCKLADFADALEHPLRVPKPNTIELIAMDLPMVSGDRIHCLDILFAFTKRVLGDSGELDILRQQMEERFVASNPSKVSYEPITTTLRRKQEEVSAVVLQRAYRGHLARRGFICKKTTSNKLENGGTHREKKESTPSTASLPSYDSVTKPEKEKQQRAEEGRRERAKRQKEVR

`Sc1ncnc2nc[nH]c12` [Mercaptopurine]: in data set [1], the “Split Luciferase Assay Z-score Set 1” value is reported as 1.52, the “Split Luciferase Assay % Lum Set 1” value worked out at 118.82%, the “Split Luciferase Assay Z-score Set 2” value stood at 1.01 and the “Split Luciferase Assay %Lum Set 2” value was found to be 112.35%. Also, in data set [1], the “Split Luciferase Assay %Lum Avg” value is 115.59%. In data set [2] (setting [3]), the “Luciferase Assay % Lum (full-length luciferase counter-screen)” value was 102.01% and the “Luciferase Assay Z-score (full-length luciferase counter-screen)” value is given as 0.26. Moreover, the “Toxicity Assay Z-score (CTB cell viability)” value (shortened to “Toxicity Assay Z-score”) in the data set with Clone V cells (16 h, 30 µM) came to 0.87. The viability at 16 h, 30 µM in “in vitro” was found to be 106%.

As to `Clc1ccc(C(c2ccccc2Cl)C(Cl)Cl)cc1` (stereo not drawn) [Mitotane], in data set [1], the “Split Luciferase Assay Z-score Set 1” value is reported as -6.12, the “Split Luciferase Assay % Lum Set 1” value amounted to 24.24%, the “Split Luciferase Assay Z-score Set 2” value is on record as -5.17 and the “Split Luciferase Assay %Lum Set 2” value amounted to 36.41%. For the same molecule, the “Split Luciferase Assay %Lum Avg” value in data set [1] was found to be 30.33%. For the same molecule, in data set [2] (setting [3]), the “Luciferase Assay % Lum (full-length luciferase counter-screen)” value was 54.78% and the “Luciferase Assay Z-score (full-length luciferase counter-screen)” value is given as -5.79. The “Toxicity Assay Z-score” value with Clone V cells (16 h, 30 µM) is -0.85. For the same molecule, the viability at 16 h, 30 µM in “in vitro” is 93.9%.

On to `O=C(O)CCCc1ccc(N(CCCl)CCCl)cc1` [Chlorambucil, reference compound], for which the “Z-score (LCA primary screening)” value in data set [1] (30 µM, 384-well, average of primary screening (n = 2), vs on-plate 0.3% DMSO) was found to be 12.39. For the same molecule, in data set [1], the “Split Luciferase Assay Z-score Set 1” value amounted to 13.12, the “Split Luciferase Assay % Lum Set 1” value is listed as 262.32%, the “Split Luciferase Assay Z-score Set 2” value turned out to be 11.67 and the “Split Luciferase Assay %Lum Set 2” value is listed as 243.43%. Also, the “Split Luciferase Assay %Lum Avg” value in data set [1] worked out at 252.88%. The “EMax (% Luminescence)” value in data set [1] (agonists, Clone V cells, 384-well, normalized to DMSO) was 252.88 % Luminescence. Besides, the concentration giving a half-maximal response (EC50) in data set [1] (estimated, 8-point dose response 0.25-30 µM, n = 4 per concentration, library compounds, read-out: EC50) was 16.4 µM. For the same molecule, in data set [2] (setting [3]), the “Luciferase Assay % Lum (full-length luciferase counter-screen)” value is 97.90% and the “Luciferase Assay Z-score (full-length luciferase counter-screen)” value was -0.27. In the data set on Clone V cells, the “Toxicity Assay Z-score” value is recorded as 0.71. The viability in the data set “in vitro” came to 105%.

`Nc1ccn([C@@H]2O[C@H](CO)[C@@H](O)[C@@H]2O)c(=O)n1` [Cytarabine hydrochloride]: in data set [1], the “Split Luciferase Assay Z-score Set 1” value is -0.50, the “Split Luciferase Assay % Lum Set 1” value came out at 93.82%, the “Split Luciferase Assay Z-score Set 2” value was 0.16 and the “Split Luciferase Assay %Lum Set 2” value amounted to 101.95%. Also, the “Split Luciferase Assay %Lum Avg” value in data set [1] is 97.88%. Also, in data set [2] (setting [3]), the “Luciferase Assay % Lum (full-length luciferase counter-screen)” value is listed as 93.77% and the “Luciferase Assay Z-score (full-length luciferase counter-screen)” value is given as -0.80. Moreover, in the data set with Clone V cells (16 h, 30 µM), the “Toxicity Assay Z-score” value is 1.12. In addition, the viability at 16 h, 30 µM in the data set “in vitro” was 108%.

Take `C[C@@H](CN1CC(=O)NC(=O)C1)N1CC(=O)NC(=O)C1` [Dexrazoxane]: in data set [1], the “Split Luciferase Assay Z-score Set 1” value came to 1.26, the “Split Luciferase Assay % Lum Set 1” value is listed as 115.56%, the “Split Luciferase Assay Z-score Set 2” value is 1.51 and the “Split Luciferase Assay %Lum Set 2” value is reported as 118.60%. Further, the “Split Luciferase Assay %Lum Avg” value in data set [1] stood at 117.08%. In data set [2], the “Luciferase Assay % Lum (full-length luciferase counter-screen)” value is on record as 109.07% and the “Luciferase Assay Z-score (full-length luciferase counter-screen)” value is 1.16. Besides, in the data set with Clone V cells (16 h, 30 µM), the “Toxicity Assay Z-score” value was found to be 2.09. Besides, the viability at 16 h, 30 µM in the data set “in vitro” is 115%.

Take `NC(=O)Nc1cc(-c2cccc(F)c2)sc1C(=O)N[C@H]1CCCNC1` [AZD 7762]: in data set [1], the “Split Luciferase Assay Z-score Set 1” value was -1.38, the “Split Luciferase Assay % Lum Set 1” value is 82.95%, the “Split Luciferase Assay Z-score Set 2” value is given as -2.63 and the “Split Luciferase Assay %Lum Set 2” value is 67.62%. Further, the “Split Luciferase Assay %Lum Avg” value in data set [1] was found to be 75.28%. For the same molecule, in data set [2] (setting [3]), the “Luciferase Assay % Lum (full-length luciferase counter-screen)” value is on record as 92.74% and the “Luciferase Assay Z-score (full-length luciferase counter-screen)” value is recorded as -0.93. The “Toxicity Assay Z-score” value with Clone V cells is listed as 0.35. In addition, the viability in “in vitro” turned out to be 102%.

As for `CCCCCOC(=O)Nc1nc(=O)n([C@@H]2O[C@H](C)[C@@H](O)[C@H]2O)cc1F` [Capecitabine], in data set [1], the “Split Luciferase Assay Z-score Set 1” value is 1.96, the “Split Luciferase Assay % Lum Set 1” value came to 124.26%, the “Split Luciferase Assay Z-score Set 2” value was 1.17 and the “Split Luciferase Assay %Lum Set 2” value came out at 114.43%. Moreover, the “Split Luciferase Assay %Lum Avg” value in data set [1] is 119.35%. Also, in data set [2] (setting [3]), the “Luciferase Assay % Lum (full-length luciferase counter-screen)” value is 100.06% and the “Luciferase Assay Z-score (full-length luciferase counter-screen)” value is recorded as 0.01. Besides, in the data set with Clone V cells (16 h, 30 µM), the “Toxicity Assay Z-score” value is reported as 1.00. In “in vitro” (Clone V cells), the viability at 16 h, 30 µM stood at 107%.

As to `CC(C)Cn1cnc2c(N)nc3ccccc3c21` [Imiquimod], in data set [1], the “Split Luciferase Assay Z-score Set 1” value was determined as 1.35, the “Split Luciferase Assay % Lum Set 1” value was determined as 116.65%, the “Split Luciferase Assay Z-score Set 2” value stood at 1.01 and the “Split Luciferase Assay %Lum Set 2” value came to 112.35%. Also, in data set [1], the “Split Luciferase Assay %Lum Avg” value is 114.50%. Further, in data set [2] (setting [3]), the “Luciferase Assay % Lum (full-length luciferase counter-screen)” value stood at 104.72% and the “Luciferase Assay Z-score (full-length luciferase counter-screen)” value came out at 0.60. In addition, the “Toxicity Assay Z-score” value in the data set with Clone V cells (16 h, 30 µM) is given as 1.03. For the same molecule, in “in vitro”, the viability at 16 h, 30 µM was determined as 107%.

For the molecule `O=c1[nH]cc(F)c(=O)[nH]1` [Fluorouracil], in data set [1], the “Split Luciferase Assay Z-score Set 1” value is 0.64, the “Split Luciferase Assay % Lum Set 1” value is reported as 107.95%, the “Split Luciferase Assay Z-score Set 2” value was 1.34 and the “Split Luciferase Assay %Lum Set 2” value turned out to be 116.51%. Besides, the “Split Luciferase Assay %Lum Avg” value in data set [1] worked out at 112.23%. In addition, in data set [2] (setting [3]), the “Luciferase Assay % Lum (full-length luciferase counter-screen)” value is recorded as 111.63% and the “Luciferase Assay Z-score (full-length luciferase counter-screen)” value was 1.49. Also, the “Toxicity Assay Z-score” value in the data set on Clone V cells (16 h, 30 µM) was 0.61. For the same molecule, in “in vitro”, the viability at 16 h, 30 µM is 104%.

Turning to `COc1cc([C@@H]2c3cc4c(cc3[C@@H](O[C@@H]3O[C@@H]5CO[C@@H](c6cccs6)O[C@H]5[C@H](O)[C@H]3O)[C@H]3COC(=O)[C@H]23)OCO4)cc(OC)c1O` [Teniposide], in data set [1], the “Split Luciferase Assay Z-score Set 1” value was determined as 1.61, the “Split Luciferase Assay % Lum Set 1” value was 119.91%, the “Split Luciferase Assay Z-score Set 2” value was determined as 2.11 and the “Split Luciferase Assay %Lum Set 2” value came to 125.88%. In addition, in data set [1], the “Split Luciferase Assay %Lum Avg” value came to 122.89%. Moreover, in data set [2] (setting [3]), the “Luciferase Assay % Lum (full-length luciferase counter-screen)” value turned out to be 92.82% and the “Luciferase Assay Z-score (full-length luciferase counter-screen)” value is on record as -0.92. For the same molecule, in the data set with Clone V cells (16 h, 30 µM), the “Toxicity Assay Z-score” value is reported as 0.66. Also, the viability at 16 h, 30 µM in the data set “in vitro” (Clone V cells) was determined as 105%.

`NCC(=O)CCC(=O)O` [Aminolevulinic acid hydrochloride]: in data set [1], the “Split Luciferase Assay Z-score Set 1” value is listed as -0.06, the “Split Luciferase Assay % Lum Set 1” value is given as 99.25%, the “Split Luciferase Assay Z-score Set 2” value stood at 0.75 and the “Split Luciferase Assay %Lum Set 2” value came out at 109.23%. In addition, the “Split Luciferase Assay %Lum Avg” value in data set [1] is reported as 104.24%. In addition, in data set [2] (setting [3]), the “Luciferase Assay % Lum (full-length luciferase counter-screen)” value was determined as 100.02% and the “Luciferase Assay Z-score (full-length luciferase counter-screen)” value worked out at 0.00. In the data set on Clone V cells (16 h, 30 µM), the “Toxicity Assay Z-score” value stood at 0.31. Moreover, in “in vitro” (Clone V cells), the viability at 16 h, 30 µM was found to be 102%.

Turning to `CN(C)c1nc(N(C)C)nc(N(C)C)n1` [Altretamine], in data set [1], the “Split Luciferase Assay Z-score Set 1” value is -0.59, the “Split Luciferase Assay % Lum Set 1” value came out at 92.73%, the “Split Luciferase Assay Z-score Set 2” value amounted to 1.85 and the “Split Luciferase Assay %Lum Set 2” value is listed as 122.76%. Moreover, the “Split Luciferase Assay %Lum Avg” value in data set [1] is recorded as 107.74%. Further, in data set [2], the “Luciferase Assay % Lum (full-length luciferase counter-screen)” value is recorded as 97.84% and the “Luciferase Assay Z-score (full-length luciferase counter-screen)” value is -0.28. The “Toxicity Assay Z-score” value with Clone V cells (16 h, 30 µM) is given as 0.43. The viability at 16 h, 30 µM in “in vitro” came out at 103%.

(Values after article PMC6858373 (Scientific Reports, 2019).)
